Test results as given in patent publication US9399646B2 (Genentech, Inc., priority 2010, dated 2016).
pIC50: −log10 of the molar value.

Tests used:
MCF-7 cells = test: Breast cancer cell viability assay (CellTiter-Glo, 5 days); assay type: cell-based; details: 5 days' compound exposure; for pIC50: Homo sapiens, MCF7, 120 h
How it was run: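 Eleven-point semilog compound series, final 0.3-0.000003 μM, added to overnight-adhered MCF-7 cells (320/well; RPMI, 10% FBS, 20 mM HEPES) for 5 days. Viability read by CellTiter-Glo luminescence, background from medium without cells subtracted, expressed relative to untreated cells.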

ER-α in MCF-7 cells = molecular target: T1, ER-α in MCF-7 cells (Homo sapiens, UniProt P03372); test: Breast cancer cell ER-α in cell western assay (SP1); assay type: cell-based; set-up: endogenous in cells; host or cells: MCF-7; details: 4 or 24 hr post compound addition; for Emax: MCF7, SP1 antibody, read-out: ER-α In Cell Western Assay (SP1) Max Response; for DC50: SP1 antibody, read-out: ER-α In Cell Western Assay (SP1) IC50
T1 sequence (P03372 1-595): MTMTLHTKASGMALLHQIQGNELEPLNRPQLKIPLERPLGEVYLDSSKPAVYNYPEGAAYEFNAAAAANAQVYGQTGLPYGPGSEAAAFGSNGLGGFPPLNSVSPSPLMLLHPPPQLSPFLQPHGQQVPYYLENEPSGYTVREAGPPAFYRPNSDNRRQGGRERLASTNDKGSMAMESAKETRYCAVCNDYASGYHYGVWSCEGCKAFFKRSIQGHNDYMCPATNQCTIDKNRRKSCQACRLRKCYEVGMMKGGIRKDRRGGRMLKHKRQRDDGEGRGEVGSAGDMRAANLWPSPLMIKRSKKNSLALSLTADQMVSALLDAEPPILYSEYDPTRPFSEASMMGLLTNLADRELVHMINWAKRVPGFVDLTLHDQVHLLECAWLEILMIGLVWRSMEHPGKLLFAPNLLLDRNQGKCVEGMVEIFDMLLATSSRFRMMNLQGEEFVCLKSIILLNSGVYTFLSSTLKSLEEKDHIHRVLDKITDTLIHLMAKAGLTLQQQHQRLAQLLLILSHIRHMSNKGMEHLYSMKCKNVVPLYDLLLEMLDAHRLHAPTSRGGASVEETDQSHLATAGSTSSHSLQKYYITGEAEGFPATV
How it was run: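 ER-α protein levels were measured in MCF-7 cells after 4 or 24 hr compound exposure (final 0.3–0.000003 μM) in RPMI containing 10% charcoal-stripped FBS.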

| pIC50 (MCF-7 cells) | Emax (ER-α in MCF-7 cells) | DC50 (ER-α in MCF-7 cells) | Compound | MCF7 Viability Assay Max Response (MCF-7 cells) |
| --- | --- | --- | --- | --- |
| < 7.00 | ≥ 40% | > 100 nM | CC/C(=C(/c1ccc(/C=C/C(=O)O)cc1)c1cnc2[nH]ccc2n1)c1ccccc1 [Compound 246, (E)-3-(4-((E)-2-Phenyl-1-(5H-pyrrolo[2,3-b]pyrazin-2-yl)but-1-en-1-yl)phenyl)acrylic acid] | + (+ = a single % value < 40%) |
| ≥ 7.00 | ≥ 40% | ≤ 100 nM | CC/C(=C(/c1ccc(/C=C/C(=O)O)cc1)c1ccc2[nH]ncc2c1)c1ccc2occc2c1 [Compound 247, (E)-3-(4-((E)-2-(Benzofuran-5-yl)-1-(1H-indazol-5-yl)but-1-en-1-yl)phenyl)acrylic acid] | ++ (++ = a single % value ≧ 40%) |
| < 7.00 | ≥ 40% | ≤ 100 nM | CC/C(=C(/c1ccc(/C=C/C(=O)O)cc1)c1ccc2[nH]ncc2c1)c1cccc(N2CCCC2)c1 [Compound 249] | ++ (++ = a single % value ≧ 40%) |
| ≥ 7.00 | ≥ 40% | ≤ 100 nM | CC/C(=C(/c1ccc(/C=C/C(=O)O)cc1)c1ccc2[nH]ncc2c1)c1ccc2c(c1)OCCO2 [Compound 250, (E)-3-(4-((E)-2-(2,3-Dihydrobenzo[b][1,4]dioxin-6-yl)-1-(1H-indazol-5-yl)but-1-en-1-yl)phenyl)acrylic acid] | ++ (++ = a single % value ≧ 40%) |
| < 7.00 | ≥ 40% | > 100 nM | CC/C(=C(/c1ccc(/C=C/C(=O)O)cc1)c1ccc2[nH]ncc2c1)c1ccc2cn[nH]c2c1 [Compound 251, (E)-3-(4-((E)-1-(1H-Indazol-5-yl)-2-(1H-indazol-6-yl)but-1-en-1-yl)phenyl)acrylic acid] | ++ (++ = a single % value ≧ 40%) |
| < 7.00 | ≥ 40% | ≤ 100 nM | CC/C(=C(/c1ccc(/C=C/C(=O)O)cc1)c1ccc2[nH]ncc2c1)c1cccc(-n2cccn2)c1 [Compound 252, (E)-3-(4-((E)-2-(3-(1H-Pyrazol-1-yl)phenyl)-1-(1H-indazol-5-yl)but-1-en-1-yl)phenyl)acrylic acid] | ++ (++ = a single % value ≧ 40%) |
| ≥ 7.00 | ≥ 40% | ≤ 100 nM | CC/C(=C(/c1ccc(/C=C/C(=O)O)cc1)c1cc(F)c2[nH]ccc2c1)c1ccc(Cl)cc1Cl [Compound 253, (E)-3-(4-((E)-2-(2,4-Dichlorophenyl)-1-(7-fluoro-1H-indol-5-yl)but-1-en-1-yl)phenyl)acrylic acid] | ++ (++ = a single % value ≧ 40%) |
| ≥ 7.00 | ≥ 40% | ≤ 100 nM | CC/C(=C(/c1ccc(/C=C/C(=O)O)cc1)c1cc(F)c2[nH]ccc2c1)c1ccc(F)cc1Cl [Compound 254, (E)-3-(4-((E)-2-(2-Chloro-4-fluorophenyl)-1-(7-fluoro-1H-indol-5-yl)but-1-en-1-yl)phenyl)acrylic acid] | ++ (++ = a single % value ≧ 40%) |
| ≥ 7.00 | ≥ 40% | ≤ 100 nM | CC/C(=C(/c1ccc(/C=C/C(=O)O)cc1)c1ccc2[nH]ncc2c1)c1ccc2scnc2c1 [Compound 255, (E)-3-(4-((E)-2-(Benzo[d]thiazol-5-yl)-1-(1H-indazol-5-yl)but-1-en-1-yl)phenyl)acrylic acid] | ++ (++ = a single % value ≧ 40%) |
| ≥ 7.00 | ≥ 40% | ≤ 100 nM | CC/C(=C(/c1ccc(/C=C/C(=O)O)cc1)c1ccc2[nH]ncc2c1)c1ccc2c(c1)CCO2 [Compound 256, (E)-3-(4-((E)-2-(2,3-Dihydrobenzofuran-5-yl)-1-(1H-indazol-5-yl)but-1-en-1-yl)phenyl)acrylic acid] | ++ (++ = a single % value ≧ 40%) |
| ≥ 7.00 | ≥ 40% | ≤ 100 nM | Cc1cscc1/C(CC(C)C)=C(\c1ccc(/C=C/C(=O)O)cc1)c1ccc2[nH]ncc2c1 [Compound 257, (E)-3-(4-((E)-1-(1H-Indazol-5-l)-4-methyl-2-(4-methylthiophen-3-yl)pent-1-en-1-yl)phenyl)acrylic acid] | ++ (++ = a single % value ≧ 40%) |
| < 7.00 | ≥ 40% | ≤ 100 nM | CC/C(=C(/c1ccc(/C=C/C(=O)O)cc1)c1ccc2[nH]ncc2c1)c1ccc2cnn(C)c2c1 [Compound 258, (E)-3-(4-((E)-1-(1H-Indazol-5-yl)-2-(1-methyl-1H-indazol-6-yl)but-1-en-1-yl)phenyl)acrylic acid] | ++ (++ = a single % value ≧ 40%) |
| ≥ 7.00 | ≥ 40% | ≤ 100 nM | CC/C(=C(/c1ccc(/C=C/C(=O)O)cc1)c1ccc2[nH]ncc2c1)c1ccc2ncsc2c1 [Compound 259, (E)-3-(4-((E)-2-(Benzo[d]thiazol-6-yl)-1-(1H-indazol-5-yl)but-1-en-1-yl)phenyl)acrylic acid] | ++ (++ = a single % value ≧ 40%) |
| < 7.00 | < 40% | > 100 nM | CC/C(=C(/c1ccc(/C=C/C(=O)O)cc1)c1ccc2[nH]ncc2c1)c1ccc2nccn2c1 [Compound 260, (E)-3-(4-((E)-2-(Imidazo[1,2-a]pyridin-6-yl)-1-(1H-indazol-5-yl)but-1-en-1-yl)phenyl)acrylic acid] | + (+ = a single % value < 40%) |
| ≥ 7.00 | ≥ 40% | ≤ 100 nM | CC/C(=C(/c1ccc(/C=C/C(=O)O)cc1)c1ccc2[nH]ncc2c1)c1cccc(Oc2ccccc2)c1 [Compound 261, (E)-3-(4-((E)-1-(1H-Indazol-5-yl)-2-(3-phenoxyphenyl)but-1-en-1-yl)phenyl)acrylic acid] | ++ (++ = a single % value ≧ 40%) |
| < 7.00 | ≥ 40% | > 100 nM | CC/C(=C(/c1ccc(/C=C/C(=O)O)cc1)c1ccc2[nH]ncc2c1)c1ccc2c(c1)N(C)C(=O)CO2 [Compound 262, (E)-3-(4-((E)-1-(1H-Indazol-5-yl)-2-(4-methyl-3-oxo-3,4-dihydro-2H-benzo[b][1,4]oxazin-6-yl)but-1-en-1-yl)phenyl)acrylic acid] | ++ (++ = a single % value ≧ 40%) |
| ≥ 7.00 | ≥ 40% | ≤ 100 nM | CC/C(=C(/c1ccc(/C=C/C(=O)O)cc1)c1ccc2[nH]ncc2c1)c1ccc(Oc2ccccc2)cc1 [Compound 263, (E)-3-(4-((E)-1-(1H-Indazol-5-yl)-2-(4-phenoxyphenyl)but-1-en-1-yl)phenyl)acrylic acid] | ++ (++ = a single % value ≧ 40%) |
| < 7.00 | ≥ 40% | > 100 nM | CC/C(=C(/c1ccc(/C=C/C(=O)O)cc1)c1ccc2[nH]ncc2c1)c1ccc(-n2cccn2)cc1 [Compound 264, (E)-3-(4-((E)-2-(4-(1H-Pyrazol-1-yl)phenyl)-1-(1H-indazol-5-yl)but-1-en-1-yl)phenyl)acrylic acid] | ++ (++ = a single % value ≧ 40%) |
